Reference: patent US20200390766A1, “PHARMACEUTICAL COMPOSITION” (Kowa Company, Ltd., priority 2019, published 2020)

Key:
Assay type in all cases: in vivo, male ICR mice
[1] = test system: pulmonary fibrosis model mice exposed to bleomycin in the trachea; test: Preventive effect on pulmonary fibrosis (Example 1): lung wet weight; conditions: FIG. 1; for lung weight as compared to the normal group: lungs extracted 21 days after exposure
Experimental: (§1) Compound A was dissolved in a 0.5% aqueous solution of methylcellulose (methylcellulose: Shin-Etsu Chemical Co., Ltd., distilled water: Otsuka Pharmaceutical Factory, Inc.) to prepare a sample solution. Further, losartan (Tokyo Chemical Industry Co., Ltd.) was dissolved in a 0.5% aqueous solution of methylcellulose to prepare a sample solution. Furthermore, pirfenidone (Ark Pharma Inc.) was dissolved in a 0.5% aqueous solution of methylcellulose to prepare a sample solution.
(§2) 6-week-old male ICR mice (Japan SLC, Inc.) were exposed to bleomycin (Nippon Kayaku Co., Ltd.) (1.5 mg/kg) dissolved in physiological saline in the trachea to prepare pulmonary fibrosis model mice.
Investigation was conducted in mice not exposed to bleomycin (exposed to physiological saline in the trachea) in the normal group (6 mice), and pulmonary fibrosis model mice exposed to bleomycin in the trachea divided into 4 groups (control, compound A 50 mg/kg/day, losartan 50 mg/kg/day, and pirfenidone 400 mg/kg/day; 10 mice in each group). From the day after exposure to bleomycin, a 0.5% aqueous solution of methylcellulose was orally administered (administered twice a day) to the normal group and the control group, the sample solution of compound A prepared above was orally administered (administered once a day) to the compound A administration group, the sample solution of losartan prepared above was orally administered (administered once a day) to the losartan administration group, and the sample solution of pirfenidone prepared above was orally administered (administered twice a day) to the pirfenidone administration group, respectively. Twenty-one days after the bleomycin exposure, the mice were anesthetized and whole lung tissues were extracted.
After washing the lung tissue extracted from the mouse with physiological saline, water was removed with a filter paper, and the wet weight was measured.

[2] = test system: pulmonary fibrosis model mice exposed to bleomycin in the trachea; test: Preventive effect on pulmonary fibrosis (Example 1): amount of hydroxyproline in the lungs; conditions: 50 mg/kg/day oral once a day from the day after bleomycin exposure, day 21, FIG. 2; for amount of hydroxyproline in the lungs as compared to the control group: Dunnett test
Experimental: as §1, §2
(§3) Investigation was conducted in mice not exposed to bleomycin (exposed to physiological saline in the trachea) in the normal group (6 mice), and pulmonary fibrosis model mice exposed to bleomycin in the trachea divided into 4 groups (control, compound A 50 mg/kg/day, losartan 50 mg/kg/day, and pirfenidone 400 mg/kg/day; 10 mice in each group). […]
The lung tissue extracted from the mouse was homogenized in a PBS solution, then mixed with an equal volume of 12N hydrochloric acid in a tube, and incubated at 110° C. for 20 to 24 hours. […] 10 μL of the sample was added with 100 μL of chloramine T solution (1.4% chloramine T, 10% n-propanol, 80% citrate acetate buffer) and incubated at room temperature for 20 minutes, then added with 100 μL of Ehrlich's reagent (1 M p-dimethylamino benzaldehyde, 20% perchloric acid, 50% n-propanol) and incubated at 65° C. for 15 minutes, and the absorbance at 550 nm was measured to quantify the amount of hydroxyproline.

[3] = test system: pulmonary fibrosis model mice exposed to bleomycin in the trachea; test: Therapeutic effect on pulmonary fibrosis (Example 2): amount of hydroxyproline in the lungs; conditions: day 21, Dunnett test, FIG. 3
Experimental: The lung tissue extracted from the mouse was homogenized in a PBS solution, then mixed with an equal volume of 12N hydrochloric acid in a tube, and incubated at 110° C. for 20 to 24 hours. After the incubation, the solution was volatilized by opening the tube and continuing the incubation. Thereafter, the resulting mixture was suspended in a citrate acetate buffer (5% citric acid, 1.2% glacial acetic acid, 7.25% sodium acetate, 3.4% sodium hydroxide, pH 6.0), and the solution filtered with a 0.45 μm diameter centrifugal filter was used as a sample. 10 μL of the sample was added with 100 μL of chloramine T solution (1.4% chloramine T, 10% n-propanol, 80% citrate acetate buffer) and incubated at room temperature for 20 minutes, then added with 100 μL of Ehrlich's reagent (1 M p-dimethylamino benzaldehyde, 20% perchloric acid, 50% n-propanol) and incubated at 65° C. for 15 minutes, and the absorbance at 550 nm was measured to quantify the amount of hydroxyproline.
Compound A was dissolved in a 0.5% aqueous solution of methylcellulose (methylcellulose: Shin-Etsu Chemical Co., Ltd., distilled water: Otsuka Pharmaceutical Factory, Inc.) to prepare a sample solution. Further, losartan (Tokyo Chemical Industry Co., Ltd.) was dissolved in a 0.5% aqueous solution of methylcellulose to prepare a sample solution. Furthermore, pirfenidone (Ark Pharma Inc.) was dissolved in a 0.5% aqueous solution of carboxymethyl cellulose (carboxymethyl cellulose: Maruishi Pharmaceutical Co., Ltd.) to prepare a sample solution.
Model mice were prepared in the same manner as in Example 1.
as §3
The amount of hydroxyproline in the mice was measured by the same method as in Example 1.

[4] = 50 mg/kg/day oral once a day from the day after bleomycin exposure
[5] = 50 mg/kg/day oral once a day from the 7th day after bleomycin exposure

Compound	lung weight as compared to the normal group [1, 4]	amount of hydroxyproline in the lungs as compared to the control group [2]	amount of hydroxyproline in the lungs as compared to the control group [3, 5]	lung weight as compared with the control group ([1]; 50 mg/kg/day oral once a day from the day after bleomycin exposure, day 21, Dunnett test)	decrease of hydroxyproline in the lung relative to the losartan administration group [2]	lung weight as compared to the normal group ([1]; 400 mg/kg/day oral twice a day from the day after bleomycin exposure)	amount of hydroxyproline in the lungs as compared to the control group ([3]; 400 mg/kg/day oral twice a day from the 7th day after bleomycin exposure)
CCCCc1nc(Cl)c(CO)n1Cc1ccc(-c2ccccc2-c2nn[nH]n2)cc1 [losartan]	significant increase in lung weight	significant decrease in hydroxyproline in the lung	no significant difference	–	–	–	–
CCCc1nc(C(C)C)n(-c2ncc(OCC)cn2)c(=O)c1Cc1ccc(-c2ccccc2-c2noc(=O)[nH]2)nc1 [compound A, 3-[2-(5-{[1-(5-ethoxypyrimidin-2-yl)-2-isopropyl-6-oxo-4-propyl-1,6-dihydropyrimidin-5-yl]methyl}pyridin-2-yl)phenyl]-1,2,4-oxadiazol-5(4H)-one]	no significant increase in lung weight	significant decrease in hydroxyproline in the lung	significant decrease in hydroxyproline in the lung	significant decrease in lung weight	larger decrease than the losartan administration group	–	–
Cc1ccc(=O)n(-c2ccccc2)c1 [pirfenidone]	–	–	–	–	–	significant increase in lung weight	no significant difference
